Measurements reported in patent US9970037B2, “Methods and materials for making simvastatin and related compounds” (The Regents of the University of California, priority 2006, dated 2018).

Assays:
[1] = tested on: E. coli BL21(DE3)/pAW31; assay: Whole cell biocatalysis with E. coli overexpressing LovD; type: cell-based, Escherichia coli; details: 4 mM acyl donor
Procedure: The BL21(DE3)/pAW31 overexpression strain was grown in a shake flask (200 mL) to an OD600 of 1.0, at which time 1 mM IPTG, 0.8 mM monacolin J and 4 mM of either benzoyl-SNAC or benzoyl-SMTG were added to the culture. Expression of LovD and bioconversion was performed at 18° C. The culture was extracted and analyzed for the formation of 8-benzoyl-monacolin J. When supplemented with benzoyl-SNAC, 84% conversion of monacolin J was detected within 20 hours post-induction. The product was lactonized and purified by a single silica-gel chromatography step. The NMR spectra confirmed the regioselective benzoylation of the C8 hydroxyl group as the diagnostic H8 multiplet is shifted downfield to δ 5.61.
Fermentation conditions: 500 mL culture with LB media with 30 mg/L kanamycin. At OD600 of 1.0, cells were concentrated to a final OD600 of 5.0 and induced with 1 mM IPTG. Substrates monacolin J and α-dimethylbutyryl-SNAC were added to a final concentration of 1 mM and 4 mM. At different time points, culture samples were collected, centrifuged, filtered and injected on to HPLC (20 μL). Extraction conditions: When maximum conversion was reached, the broth was acidified to pH of 2.0, extracted with ethyl acetate, dried and redissolved in toluene.
Whole-cell catalytic synthesis of simvastatin acid from MJ acid and DMB-S-MMP were performed as described (see, e.g., Xie et al., (2007) Appl Environ Microbiol 73: 2054-2060). The E. coli BL21(DE3)/pAW31 and YT2/pAW31 strains were cultured side-by-side for comparison. A single colony of the freshly transformed strains was used to inoculate a 5 mL LB culture supplemented with 35 mg/L kanamycin and grown overnight at 37° C. The next morning, 100 μL of the overnight culture was inoculated into 50 mL cultures containing LB broth, F1 minimal medium and F1 medium supplemented with 0.15 mg/L biotin. Growth rates were monitored by periodically measuring the OD600 reading. When OD600 reached ˜0.5, 100 μM IPTG was added to the culture and expression of LovD was performed at 20° C. for 16 hours. To mimic high density fermentation conditions, the cells were concentrated 10-fold before addition of substrates. Typically, a 14 mL aliquot of the culture was transferred to a 15 mL centrifuge tube and the cells were collected by centrifugation (4° C., 4000 g, 10 minutes). The cell pellet was gently resuspended in 1316 μl of the supernatant, followed by addition of 84 μl of a MJ acid stock solution (250 mM in H2O) (final concentration 15 mM). The concentrated culture was then separated into seven 200 μL samples and 1.2 μL of pure DMB-S-MMP was added to each sample (final concentration ˜25 mM). The culture was then shaken at 300 rpm at room temperature. At each time point, a total extraction was performed by adding 10 μL 20% SDS to lyse the cells, followed by liquid-liquid extraction with 500 μL EA/1% AcOH. The organic phase was removed, evaporated, and redissolved in 50 μL ACN for HPLC analysis. For the BL21(DE3) sample, an additional 1.2 μL aliquot of DMB-S-MMP was added after 12 hours to replenish the hydrolyzed substrates.
The E. coli BL21(DE3)/pAW31 strain was grown in LB medium at 37° C. to an OD600 of 0.5, at which time 100 μM IPTG was added to the culture and expression was performed at RT for 16 hours. A 10 ml culture was transferred to a 15 mL centrifuge tube. The cells were collected by centrifugation (4000 g, 10 minutes). The cell pellet was resuspended in 957 μl of the supernatant. The pH was adjusted to pH 7.9 with 1.0 N NaOH, followed by addition of 33 μl 450 mM MJ (final concentration 15 mM) and 6 μl pure DMB-S-MMP (final concentration ˜25 mM). The culture was then shaken at 300 rpm at room temperature. At each time point, a 4 μL aliquot was removed from the reaction mixture, quenched in 300 μL ethyl acetate containing 1% TFA.

[2] = target: T1, LovD (Aspergillus terreus, UniProt Q9Y7D1); assay: LovD transacylation assay: acyl transfer from acyl thioester to C8 hydroxyl of monacolin J, HPLC; type: biochemical; design: 6xHis (N); made in house; host or cells: E. coli BL21(DE3)/pAW31 (pET28a); details: for apparent kcat (initial turnover rate in the linear range) of monacolin J acylation: 10 μM LovD, 4 mM acyl donor; for apparent kcat (initial turnover rate in the linear range) of monacolin J acylation / substrate competence for LovD: 1 mM monacolin J; for apparent kcat (initial turnover rate in the linear range) of monacolin J acylation / Initial Velocity (ki): 50 mM HEPES, pH 7.9; for Initial Velocity (ki): 1 mM MJ, 4 mM thioester substrate, 10 uM pure LovD, rate of initial turnover in the linear range; for substrate competence for LovD: 4 mM acyl-CoA, 10 uM LovD, 10 hours
T1 sequence (Q9Y7D1 1-413): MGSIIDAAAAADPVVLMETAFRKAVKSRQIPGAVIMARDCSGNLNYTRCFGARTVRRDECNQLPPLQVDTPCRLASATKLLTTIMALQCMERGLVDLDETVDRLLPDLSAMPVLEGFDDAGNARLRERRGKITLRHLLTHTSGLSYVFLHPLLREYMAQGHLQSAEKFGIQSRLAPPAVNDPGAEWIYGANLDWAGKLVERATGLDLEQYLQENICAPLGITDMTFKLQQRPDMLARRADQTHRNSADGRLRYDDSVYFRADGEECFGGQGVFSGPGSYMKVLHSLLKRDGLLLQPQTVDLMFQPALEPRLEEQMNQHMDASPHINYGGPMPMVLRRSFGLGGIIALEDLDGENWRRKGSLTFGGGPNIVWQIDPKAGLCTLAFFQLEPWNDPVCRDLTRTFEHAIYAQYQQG
Procedure: We first examined if an acyl-CoA can be used as substrate for the transacylation reaction. The uninterrupted gene of LovD was amplified from A. terreus genomic DNA using splice by overlap extension PCR and was inserted into the pET28a expression vector. Overexpression of soluble, N-terminal 6×His fusion LovD was performed in E. coli strain BL21(DE3)/pAW31. LovD was purified using Nickel-NTA affinity column to homogeneity (final yield˜40 mg/L). The substrate monacolin J (1 mM) was prepared through the LiOH hydrolysis of lovastatin and was added to a reaction mixture containing pure LovD (10 μM) and butyryl-CoA (4 mM), which is a commercially available acyl-CoA that best mimics the natural α-methylbutyrate side chain. The reaction mixture was incubated at room temperature, extracted with ethyl acetate and analyzed by HPLC and LC-MS (FIG. 5).
We assayed the tolerance of LovD towards different acyl substituents by performing the transacylation assay with various commercially available acyl-CoAs (Table 1A). All assays were perform with 1 mM monacolin J, 4 mM acyl-CoA and 10 uM LovD for 10 hours.
Expression and purification of LovD has been previously described in detail (see, e.g., Xie et al., 2006, Chem Biol 13: 1161-1169). The assays were performed at room temperature in 50 mM HEPES, pH 7.9. The initial velocities (ki) of the acyl substrates were determined with 10 μM LovD, 1 mM monacolin J and 4 mM of the thioester. The reaction mixture at different time points was quenched by trifluoroacetic acid (TFA), extracted with ethyl acetate, evaporated to dryness and redissolved in acetonitrile. The percent conversion of monacolin J to simvastatin was determined by HPLC analysis (C18). The linear range of the turnover rate is reported as ki in Table 1B. To determine the Km of DMB-S-MMP, the concentration of monacolin J is fixed at 2 mM, while the concentration of DMB-S-MMP was varied from 0.2 mM to 10 mM. DMSO is added to a final concentration of 5% to facilitate solubilization of DMB-S-MMP. To obtain Km of monacolin J, DMB-S-MMP concentration is fixed at 2 mM, while the concentration of monacolin J is varied from 0.2 mM to 5 mM.

[3] = target: T2, BioH (Escherichia coli, UniProt P13001); assay: BioH enzymatic hydrolysis assay of dimethylbutyryl thioesters, HPLC 234 nm; type: biochemical; details: 1 mM substrate, 10 nM BioH
T2 construct: The bioH gene was amplified from E. coli genomic DNA by PCR with flanking restriction sites NdeI and EcoRI; 6xHis (N); made in house; host or cells: E. coli BL21(DE3)/pXK8 (pET28a)
T2 sequence (P13001 1-256): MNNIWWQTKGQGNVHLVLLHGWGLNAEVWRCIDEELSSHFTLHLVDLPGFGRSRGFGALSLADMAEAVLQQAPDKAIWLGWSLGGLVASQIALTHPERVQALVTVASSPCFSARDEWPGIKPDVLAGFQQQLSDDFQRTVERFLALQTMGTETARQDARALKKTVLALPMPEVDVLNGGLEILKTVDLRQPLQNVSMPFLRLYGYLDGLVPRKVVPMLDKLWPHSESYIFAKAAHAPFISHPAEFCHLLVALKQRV
Procedure: (§1) The hydrolysis assays were performed at room temperature in 50 mM HEPES, pH 7.9. The thioester substrate DMB-S-MMP was added to final concentration between 0.1 mM and 1.0 mM. To facilitate solubilization of DMB-S-MMP, DMSO was added to a final concentration of 10% for all the samples. The reaction was initiated with the addition of BioH (0.01 μM) and quenched at desired time points (10, 20, 30 minutes) by adding equal volume of EA/1% AcOH. The organic phase was separated, dried and redissolved in 20 μL of ACN and analyzed with HPLC. The conversions of DMB-S-MMP to DMB-S-MPA were quantified by integration of the peaks at 234 nm. Comparison of the BioH catalytic efficiency towards the three dimethylbutyryl thioesters were performed at 1 mM substrate concentration and 10 nM BioH concentration.

[4] = substrate: CCC(C)(C)C(=O)SCCC(=O)OC; assay: as above; type: biochemical, Escherichia coli; details: other: 50 mM HEPES, pH 7.9, 10% DMSO, 0.01 μM BioH
Procedure: as §1

`CC(=O)NCCSC(=O)c1ccccc1` [benzoyl-SNAC] was tested, and the “conversion of monacolin J (benzoylation) in vivo” value ([1]; 0.8 mM monacolin J, 18° C., within 20 hours post-induction) was 84% and the “apparent kcat (initial turnover rate in the linear range) of monacolin J acylation” value (“apparent kcat” below) [2] was 0.002 s⁻¹.

With `CCC(C)(C)C(=O)SCCNC(C)=O` [DMB-S-NAC, α-dimethylbutyryl-S-N-acetylcysteamine] the “conversion of monacolin J to simvastatin, low cell-density fermentation” value ([1]; 1 mM monacolin J, after two days of culturing) was ~90% and the “Initial Velocity (ki)” value [2] was 0.02 min⁻¹.

`CCCCCCCCCCCCCCCC(=O)SCCNC(=O)CCNC(=O)[C@H](O)C(C)(C)COP(=O)(O)OP(=O)(O)OC[C@H]1O[C@@H](n2cnc3c(N)ncnc32)[C@H](O)[C@@H]1OP(=O)(O)O` [palmitoyl-CoA, reference compound] was tested, and the “substrate competence for LovD” value [2] was “inactive”.

For `CCCC(=O)SCCNC(C)=O` [butyryl-SNAC], the “apparent kcat” value [2] was 0.0015 s⁻¹.

For `CC[C@H](C)C(=O)SCCNC(C)=O` [α-S-methylbutyryl-SNAC], the “apparent kcat” value [2] was ~0.00067 s⁻¹.

For `CC(=O)CC(=O)SCCNC(=O)CCNC(=O)[C@H](O)C(C)(C)COP(=O)(O)OP(=O)(O)OC[C@H]1O[C@@H](n2cnc3c(N)ncnc32)[C@H](O)[C@@H]1OP(=O)(O)O` [Acetoacetyl-CoA, reference compound], the “substrate competence for LovD” value [2] was “excellent substrates”.

Molecule `C[C@H]1C=C2C=C[C@H](C)[C@H](CC[C@@H]3C[C@@H](O)CC(=O)O3)[C@H]2[C@@H](O)C1` [monacolin J] has a Km ([2]; DMB-S-MMP fixed at 2 mM, monacolin J 0.2-5 mM) of 780 ± 120 µM.

In the case of `CC(C)(COP(=O)(O)OP(=O)(O)OC[C@H]1O[C@@H](n2cnc3c(N)ncnc32)[C@H](O)[C@@H]1OP(=O)(O)O)[C@@H](O)C(=O)NCCC(=O)NCCSC(=O)CC(=O)O` [malonyl-CoA, reference compound], the “substrate competence for LovD” value [2] is reported as “inactive”.

In the case of `CCOC(=O)CCSC(=O)C(C)(C)CC` [DMB-S-EMP, dimethylbutyryl-S-ethyl mercaptopropionate], the “rate of substrate hydrolysis by BioH relative to DMB-S-MMP” value [3] is reported as “significantly attenuated” and the “Initial Velocity (ki)” value [2] is reported as 0.70 min⁻¹.

In the case of `CCC(C)(C)C(=O)SCC(=O)OC` [DMB-S-MTG, dimethylbutyryl-S-methyl thioglycolate], the “decrease in the rate of hydrolysis by BioH relative to DMB-S-MMP” value [3] is reported as 2.5 fold and the “Initial Velocity (ki)” value [2] is reported as 0.03 min⁻¹.

With `CC(O)CC(=O)SCCNC(=O)CCNC(=O)[C@H](O)C(C)(C)COP(=O)(O)OP(=O)(O)OC[C@H]1O[C@@H](n2cnc3c(N)ncnc32)[C@H](O)[C@@H]1OP(=O)(O)O` (stereo partly drawn) [β-hydroxylbutyryl-CoA, reference compound] the “substrate competence for LovD” value [2] was “excellent substrates”.

For `CCC(C)(C)C(=O)SCCCC(=O)OC` [DMB-S-MMB, dimethylbutyryl-S-methyl mercaptobutyrate], the “Initial Velocity (ki)” value [2] was 0.78 min⁻¹.

B1: BioH (Escherichia coli K-12) (protein)
chain: MNNIWWQTKGQGNVHLVLLHGWGLNAEVWRCIDEELSSHFTLHLVDLPGFGRSRGFGALSLADMAEAVLQQAPDKAIWLGWSLGGLVASQIALTHPERVQALVTVASSPCFSARDEWPGIKPDVLAGFQQQLSDDFQRTVERFLALQTMGTETARQDARALKKTVLALPMPEVDVLNGGLEILKTVDLRQPLQNVSMPFLRLYGYLDGLVPRKVVPMLDKLWPHSESYIFAKAAHAPFISHPAEFCHLLVALKQRV
notes: The bioH gene was amplified from E. coli genomic DNA by PCR with flanking restriction sites NdeI and EcoRI; 6xHis (N); made in house; host or cells: E. coli BL21(DE3)/pXK8 (pET28a)
B1 gave a Km [4] of 229 ± 26 µM and a kcat [4] of 260 ± 45 s⁻¹.
